Reference: the supplement of paper PMC10307832

What was measured:
Experiment in all cases: relative viability (nuclei count vs DMSO), 5 days (fraction); higher = more cells survive
[1] = compound: C1=CC=C2C(=C1)C=CC(=C2SSC3=C(C=CC4=CC=CC=C43)O)O [IPA-3]
Procedure, shortened: (§1)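 MetaXpress counted nuclei in 4× images of lung cancer cell lines that had been fixed, permeabilised and Hoechst-stained in one step. Before that, cells in 1536-well plates were kept overnight at 37 °C, pinned with five √10-spaced library-drug doses on vehicle-anchored plates, and cultured 5 days without medium change. Viability takes treated-well nuclei over vehicle-well nuclei and uses the median across plates. Plates were accepted only at control CV below 25% and at least one doubling.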

[2] = compound: Cc1ccc(-n2nc(C(C)(C)C)cc2NC(=O)Nc2ccc(OCCN3CCOCC3)c3ccccc23)cc1 [Doramapimod]
Procedure, shortened: as §1

[3] = compound: Cn1c(Nc2ccc(C(F)(F)F)cc2)nc2cc(Oc3ccnc(-c4ncc(C(F)(F)F)[nH]4)c3)ccc21 [RAF265]
Procedure, shortened: as §1

[4] = compound: Cc1ccc(-n2nc(C(C)(C)C)cc2NC(=O)Nc2ccc(OCCN3CCOCC3)c3ccccc23)cc1 [Doramapimod] + CS(=O)(=O)CCNCc1ccc(-c2ccc3ncnc(Nc4ccc(OCc5cccc(F)c5)c(Cl)c4)c3c2)o1 [Lapatinib] (partner 2 µM)
Procedure, shortened: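 Relative viability is defined as nuclei in treated wells over nuclei in vehicle wells. Duplicate plates were run and medians reported. Lung cancer cell lines in 1536-well plates were dosed by pin tool one day after seeding, with one drug or with a fixed anchor-drug dose plus five library-drug doses (not always all listed) in √10 steps, and nuclei were counted after 5 days.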

Q: Which relative viability ([1]; 0.2 µM) does the source give for UMC-11 here?
A: 1.08

Q: What about the relative viability ([1]; 0.6325 µM) of the same cell line?
A: 0.932

Q: And the relative viability ([1]; 2 µM)?
A: 0.967

Q: What about the relative viability ([1]; 6.325 µM) of the same cell line?
A: 0.916

Q: And the relative viability ([1]; 20 µM)?
A: 1.09

Q: What about the relative viability ([2]; 0.02 µM) of the same cell line?
A: 0.904

Q: What about the relative viability ([2]; 0.06325 µM) of the same cell line?
A: 0.934

Q: And the relative viability ([2]; 0.2 µM)?
A: 0.956

Q: What about the relative viability ([2]; 0.6325 µM) of the same cell line?
A: 0.782

Q: And the relative viability ([2]; 2 µM)?
A: 0.841

Q: What about the relative viability ([3]; 0.01 µM) of the same cell line?
A: 0.975

Q: What about the relative viability ([3]; 0.03162 µM) of the same cell line?
A: 0.95

Q: What about the relative viability ([3]; 0.1 µM) of the same cell line?
A: 0.942

Q: And the relative viability ([3]; 0.3162 µM)?
A: 0.948

Q: And the relative viability ([3]; 1 µM)?
A: 0.872

Q: And the relative viability ([4]; first compound 0.02 µM)?
A: 1.09

Q: What about the relative viability ([4]; first compound 0.06325 µM) of the same cell line?
A: 0.957

Q: What about the relative viability ([4]; first compound 0.2 µM) of the same cell line?
A: 0.901

Q: What about the relative viability ([4]; first compound 0.6325 µM) of the same cell line?
A: 0.743

Q: What about the relative viability ([4]; first compound 2 µM) of the same cell line?
A: 0.654
